Laboratory results published in US11473064B2, “Hybrid alphavirus-SARS-CoV-2 particle and methodology of making and using same” (GEORGE MASON RESEARCH FOUNDATION, INC., priority 2020, dated 2022).

System: Ha-CoV-2(Luc)
Assay: microbe, parasite or virus in culture
Type: cell-based, SARS-CoV-2
Conditions: Severe acute respiratory syndrome coronavirus 2, HEK-293T, read-out: IC50 (inhibition of Ha-CoV-2(Luc) infection)

## CCOC(=O)c1c(CSc2ccccc2)n(C)c2cc(Br)c(O)c(CN(C)C)c12 [Arbidol, Arbidol (Umifenovir)]
  IC50: 16 µM
